# In publication PMC10526857, “In Vitro Enzymatic Studies Reveal pH and Temperature Sensitive Properties of the CLIC Proteins” (Biomolecules, 2023):
# Tests used:
# CLIC4 [1] = molecular target: T1, CLIC4 (Homo sapiens, UniProt Q9Y696); assay: inhibition of HEDS reductase activity, GR-coupled NADPH consumption at […] nm; format: biochemical; conditions: 10 µM inhibitor, 10 µM CLIC, 1 h preincubation at 4 °C; 1 mM HEDS, 1 mM GSH, 250 µM NADPH, 0.5 µg/mL GR, pH 7, 37 °C
# T1 construct: recombinant, E. coli, pGEX-4T-1 N-terminal GST tag cut off with thrombin, SEC purified
# CLIC1 [2] = molecular target: T2, CLIC1 (Homo sapiens, UniProt O00299); assay: as above; format: biochemical; set-up: recombinant, E. coli BL21(DE3), pET-28a His-tag cut off with thrombin, Ni-NTA and SEC purified; conditions: 10 µM inhibitor, 10 µM CLIC, 1 h preincubation at 4 °C; 1 mM HEDS, 1 mM GSH, 250 µM NADPH, 0.5 µg/mL GR, pH 7, 37 °C
# CLIC3 [3] = molecular target: T3, CLIC3 (Homo sapiens, UniProt O95833); assay: as above; format: biochemical; conditions: 10 µM inhibitor, 10 µM CLIC, 1 h preincubation at 4 °C; 1 mM HEDS, 1 mM GSH, 250 µM NADPH, 0.5 µg/mL GR, pH 7, 37 °C
# T3 construct: recombinant, E. coli BL21(DE3), pET-28a His-tag cut off with thrombin, Ni-NTA and SEC purified
# CLIC4 [4] = molecular target: T1, CLIC4; assay: HEDS assay coupled to glutathione reductase, NADPH consumption at […] nm, Lineweaver-Burk; format: biochemical; conditions: 1 mM GSH, 250 µM NADPH, 0.5 µg/mL yeast GR, 10 µM CLIC, 5 mM potassium phosphate pH 7, 1 mM EDTA, 37 °C
# CLIC3 [5] = molecular target: T3, CLIC3; assay: as above; format: biochemical; conditions: 1 mM GSH, 250 µM NADPH, 0.5 µg/mL yeast GR, 10 µM CLIC, 5 mM potassium phosphate pH 7, 1 mM EDTA, 37 °C
# CLIC1 [6] = molecular target: T2, CLIC1; conditions: 1 mM GSH, 250 µM NADPH, 0.5 µg/mL yeast GR, 10 µM CLIC, 5 mM potassium phosphate pH 7, 1 mM EDTA, 37 °C
# T1 sequence (Q9Y696 whole entry): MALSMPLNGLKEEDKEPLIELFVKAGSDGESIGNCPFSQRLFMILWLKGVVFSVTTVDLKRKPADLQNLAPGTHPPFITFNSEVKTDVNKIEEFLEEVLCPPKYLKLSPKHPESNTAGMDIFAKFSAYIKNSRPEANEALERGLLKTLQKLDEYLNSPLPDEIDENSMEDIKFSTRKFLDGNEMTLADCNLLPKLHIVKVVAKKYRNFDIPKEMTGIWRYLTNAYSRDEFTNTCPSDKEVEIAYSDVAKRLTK
# T3 sequence (O95833 whole entry): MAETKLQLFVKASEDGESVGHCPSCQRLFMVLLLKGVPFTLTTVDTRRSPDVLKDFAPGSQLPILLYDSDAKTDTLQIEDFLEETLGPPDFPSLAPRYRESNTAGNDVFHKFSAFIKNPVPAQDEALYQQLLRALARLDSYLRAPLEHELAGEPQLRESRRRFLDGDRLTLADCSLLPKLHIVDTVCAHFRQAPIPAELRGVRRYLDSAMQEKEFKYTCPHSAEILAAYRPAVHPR
smiles,measurement,setting,value
C[C@@H]1[C@H](O)[C@@H](C)/C=C/C=C/C=C/C=C/C=C/C=C/C=C/[C@H](O[C@@H]2O[C@H](C)[C@@H](O)[C@H](N)[C@@H]2O)C[C@@H]2O[C@](O)(C[C@@H](O)C[C@@H](O)[C@H](O)CC[C@@H](O)C[C@@H](O)CC(=O)O[C@H]1C)C[C@H](O)[C@H]2C(=O)O [amphotericin B],residual activity (%) at 10 μM,CLIC4 [1],Both rapamycin and amphotericin B caused inhibition of the enzymatic activity of all three proteins
same,residual activity (%) at 10 μM,CLIC1 [2],with CLIC1′s activity virtually abolished by all three drugs
same,residual activity (%) at 10 μM,CLIC3 [3],Both rapamycin and amphotericin B caused inhibition of the enzymatic activity of all three proteins
OCCSSCCO [HEDS],Km,CLIC4 [4],345 µM
same,Km,CLIC3 [5],266 µM
same,Km,CLIC1 [6],274 µM
CO[C@H]1C[C@@H]2CC[C@@H](C)[C@@](O)(O2)C(=O)C(=O)N2CCCC[C@H]2C(=O)O[C@H]([C@H](C)C[C@@H]2CC[C@@H](O)[C@H](OC)C2)CC(=O)[C@H](C)/C=C(\C)[C@@H](O)[C@@H](OC)C(=O)[C@H](C)C[C@H](C)/C=C/C=C/C=C/1C [rapamycin],residual activity (%) at 10 μM,CLIC4 [1],Both rapamycin and amphotericin B caused inhibition of the enzymatic activity of all three proteins
same,residual activity (%) at 10 μM,CLIC1 [2],with CLIC1′s activity virtually abolished by all three drugs
same,residual activity (%) at 10 μM,CLIC3 [3],Both rapamycin and amphotericin B caused inhibition of the enzymatic activity of all three proteins
